{
  "source": "patent US5380759A",
  "about": "“Methyl N-[6-(3,4,5-trimethoxybenzloxy)imidazo[1,2-b]pyridazin-2-zyl]carbamate used to treat leukemia” (priority 1987, dated 1995)",
  "key": {"[1]": {"test_system": "P388/CPA", "test": "In vivo activity against drug resistant tumour P388/CPA", "design": "species or system mouse", "conditions": "optimum dose 12.5 mg/kg", "method": "(§1) CD2-F1 mice, of the same sex, weighing within a 3 gram range surrounding 20 g, are used for this test. Control and test animals are injected intraperitoneally with a suspension of 10^6 viable P388/O tumour cells on day 0. In each test several dose levels which bracket the LD20 for the compound are evaluated; each dose level group contains 6 animals. The test compounds are prepared either in physiologic saline containing 0.05% Tween 80 or distilled water containing 5% dextrose and are administered intraperitoneally on days 1,5 and 9 relative to tumour implant. Doses are on a mg/kg basis according to individual animals' body weights. The day of death for each animal is recorded and the median day of death identified for each group. The difference between the median survival time for treated and control groups is expressed as a percentage increase in life span (% ILS)."}, "[2]": {"test_system": "P388 D1 cells", "test": "P388 D1 colony-forming assay", "format": "cell-based", "conditions": "Mus musculus, P388D1; 24 h exposure, 14 days colony growth; read-out: IC50 colony formation", "procedure": "B) P338D1 Colony-forming Assay\nIn this assay, cells from an in vitro-adapted line of the mouse lymphoid neoplasm, P388 are first exposed to serially diluted concentrations of test compound over a 24 hour period in culture. Thereafter, the ability of such treated cells to form discrete colonies over a 14 day period after resuspension in a semi-solid drug-free medium is determined.\nInitially cells in log growth are plated into individual 25 cm^2 tissue culture flasks each containing a final volume of 5 mls of Hepes buffered RPMI 1640 culture medium supplemented with 10 percent foetal calf serum, antibiotics and test compound. All compounds are formulated initially at appropriate concentrations in DMSO, 25 microliters of which is then added to each flask. All compounds are evaluated at concentrations ranging serially in four fold decrements from a top concentration some four fold greater than that already known to inhibit the proliferation of these cells by about 80 to 90 percent in the primary proliferative assay.\nAfter 24 hrs exposure to the test compound the cells are counted and a known number of live cells transferred to a 15 ml centrifuge tube to which 4 mls of a 0.25 percent low temperature gelling agarose solution in complete RPMI tissue culture medium is then added. After 13 days incubation at 37° C., 1 ml of 1% p-Iodonitrotetrazolium violet is added to the top of each tube and allowed to permeate through the agarose for a further 24 to 48 hrs. This dye is metabolised by living cells to produce an insoluble red crystalline product which facilitates counting of the colonies. Samples are taken from each tube and the number of colonies containing a minimum of 50 cells is determined. The concentration of compound necessary to inhibit colony formation by 50 percent relative to that of control cells incubated under identical conditions but in the absence of the test compound is determined."}, "[3]": {"test_system": "tubulin", "test": "Turbidimetric assay of tubulin polymerisation", "format": "biochemical, horse", "conditions": "37° C., increase in A350nm 10 min after lag phase; read-out: Total tubulin polymerisation IC50", "procedure": "A) Tubulin Polymerisation Assay\n1. Preparation of tubulin\nAll manipulations are performed at 4° C. unless otherwise specified. The horse brain is washed in ice-cold BBG buffer and superficial meninges and blood vessels removed. After weighing, cerebral cortices are chopped, homogenised in 75 ml BBG buffer/100 g brain, centrifuged at 6500 g for 15 min and after removal of […], re-centrifuged at 100,000 g for 75 min. The volume of the supernatant (Vml) is measured and V/10 ml 10 mM GTP (Li salt) in H2 O added. The mixture is incubated in sealed centrifuge tubes (30 min, 34° C.) in a shaking water bath to polymerise the tubulin. After polymerisation the tubes are balanced and centrifuged at 100,000 g, (1 h at 27° C.) in a pre-warmed rotor. The high-speed pellet is resuspended in V/4 ml BB buffer and the preparation stirred on ice for 30 min and centrifuged at 100,000 g (1 h at 4° C.) to remove the cold-stable microtubules. An equal volume of BB2G buffer is added to the supernatant which is frozen rapidly in 5 ml samples in plastic weighing dishes floated on a solid CO2 /ethanol slurry, and stored overnight at -80° C. After ca. 18 hours the frozen samples of tubulin are thawed, 10 mM GTP in H2 O added to give a final concentration of 1 mM, and the new volume (Wml), is measured. The polymerisation/depolymerisation cycle is repeated exactly as above but substituting W for V to give twice-cycled tubulin.\n2. Turbidimetric Assay of Tubulin Polymerisation\nApparatus: recording spectrophotometer with a 6-position, thermostatted cuvette holder; full scale deflection=0.2 absorbance units.\nIn a 1 ml spectrophotometer cuvette are mixed 100 μl 10 mM GTP (Li salt) made up in BB buffer, 10 μl H2 O or DMSO-depending on selected drug solvent, BB buffer and tubulin preparation such that the final increase in A350nm is 0.15 units after 16 mins (approx. 100 μl of tubulin prep. or 2.5 mg protein) in a final volume of 1 ml at 37° C. All reagents are stored on ice.\nPolymerisation is initiated by raising the temperature to 37° C. and the increase in A350nm of triplicate samples against a reference cuvette is recorded. The reference sample includes a similar incubation mixture either without tubulin or with the addition of 1 mM Ca^2+. The increase over initial A350nm 10 min after the completion of lag phase (control polymerisation is 80% complete within this time) is calculated and expressed as a percentage of the control value, for a range of drug concentrations. The drug concentration required to give a 50% change (IC50) in the control value is determined."}, "[4]": {"test_system": "P388/AMSA", "test": "In vivo activity against drug resistant tumour P388/AMSA", "design": "species or system mouse", "conditions": "optimum dose 5.0 mg/kg", "method": "as §1"}},
  "data": [
    {"smiles": "COC(=O)Nc1cn2nc(OCc3cc(OC)c(OC)c(OC)c3)ccc2n1", "note": "[Example 1, Methyl N-[6-(3,4,5-trimethoxybenzyloxy)imidazo[1,2-b]pyridazin-2-yl]carbamate]", "values": [
      {"measurement": "60 Day Survivors", "setting": "[1]", "value": "1/6"},
      {"measurement": "% ILS", "setting": "[1]", "value": "+150%"},
      {"measurement": "IC50", "setting": "[2]", "value": 13.2, "unit": "nM"},
      {"measurement": "IC50", "setting": "[3]", "value": 420, "unit": "nM"},
      {"measurement": "60 Day Survivors", "setting": "[4]; (day 31)", "value": "4/6"},
      {"measurement": "% ILS", "setting": "[4]", "value": "+134%"}
    ]}
  ]
}
